In BigSolDB 2.1:

O=C(O)[C@H]1O[C@@H](Oc2cc3oc(-c4ccccc4)cc(=O)c3c(O)c2O)[C@H](O)[C@@H](O)[C@@H]1O
solubility (mole fraction)
Details	278.15 K	283.15 K	288.15 K	293.15 K	298.15 K	303.15 K	308.15 K	313.15 K	318.15 K
in ethanol	0.000171	0.000176	0.000181	0.000186	0.000191	0.000196	0.000202	0.000205	0.000212
in isopropanol	0.000676	0.000855	0.00112	0.00145	0.00191	0.00246	0.00314	0.00392	0.00472
in methanol	8.11e-05	9.11e-05	0.000101	0.000113	0.000127	0.000143	0.000157	0.000171	0.000192
in n-propanol	0.000768	0.00101	0.00133	0.00171	0.00224	0.00289	0.00363	0.00451	0.00551
in water	2.38e-06	3.13e-06	4.35e-06	5.8e-06	7.49e-06	9.78e-06	1.27e-05	1.59e-05	2.03e-05
